Earlier results as cited in US20130303466A1, “Chemosensory Receptor Ligand-Based Therapies” (ELCELYX THERAPEUTICS, INC., priority 2010, published 2013).

target: T1, sweet receptor (Homo sapiens, UniProt Q7RTX0+Q8TE23); conditions: relative sweetness on a weight comparison basis to sucrose (= 1.0); ranges: relative sweetness varied with the concentration of sucrose; adapted from Kim et al., 2002
T1 sequence (Q8TE23 20-839): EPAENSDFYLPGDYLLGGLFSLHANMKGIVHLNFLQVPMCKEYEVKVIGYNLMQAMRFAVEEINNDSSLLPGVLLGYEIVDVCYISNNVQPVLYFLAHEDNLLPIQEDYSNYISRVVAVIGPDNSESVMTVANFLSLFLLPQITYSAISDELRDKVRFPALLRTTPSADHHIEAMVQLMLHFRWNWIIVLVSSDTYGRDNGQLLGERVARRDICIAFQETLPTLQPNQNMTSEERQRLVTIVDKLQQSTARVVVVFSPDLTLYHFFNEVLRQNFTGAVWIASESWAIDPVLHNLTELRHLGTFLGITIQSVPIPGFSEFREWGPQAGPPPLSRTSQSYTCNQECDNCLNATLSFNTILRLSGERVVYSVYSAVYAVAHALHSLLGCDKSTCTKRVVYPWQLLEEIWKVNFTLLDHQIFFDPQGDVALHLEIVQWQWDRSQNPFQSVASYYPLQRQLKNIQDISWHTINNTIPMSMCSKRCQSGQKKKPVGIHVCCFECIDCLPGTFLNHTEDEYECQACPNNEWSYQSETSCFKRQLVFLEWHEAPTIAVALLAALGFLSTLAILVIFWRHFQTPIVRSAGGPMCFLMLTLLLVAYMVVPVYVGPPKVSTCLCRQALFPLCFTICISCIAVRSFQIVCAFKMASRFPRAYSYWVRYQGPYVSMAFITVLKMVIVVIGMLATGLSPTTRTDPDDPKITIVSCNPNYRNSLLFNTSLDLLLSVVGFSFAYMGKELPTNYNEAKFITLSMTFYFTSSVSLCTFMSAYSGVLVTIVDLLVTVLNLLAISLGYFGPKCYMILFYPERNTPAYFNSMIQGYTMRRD
T1 sequence (Q7RTX0 21-852): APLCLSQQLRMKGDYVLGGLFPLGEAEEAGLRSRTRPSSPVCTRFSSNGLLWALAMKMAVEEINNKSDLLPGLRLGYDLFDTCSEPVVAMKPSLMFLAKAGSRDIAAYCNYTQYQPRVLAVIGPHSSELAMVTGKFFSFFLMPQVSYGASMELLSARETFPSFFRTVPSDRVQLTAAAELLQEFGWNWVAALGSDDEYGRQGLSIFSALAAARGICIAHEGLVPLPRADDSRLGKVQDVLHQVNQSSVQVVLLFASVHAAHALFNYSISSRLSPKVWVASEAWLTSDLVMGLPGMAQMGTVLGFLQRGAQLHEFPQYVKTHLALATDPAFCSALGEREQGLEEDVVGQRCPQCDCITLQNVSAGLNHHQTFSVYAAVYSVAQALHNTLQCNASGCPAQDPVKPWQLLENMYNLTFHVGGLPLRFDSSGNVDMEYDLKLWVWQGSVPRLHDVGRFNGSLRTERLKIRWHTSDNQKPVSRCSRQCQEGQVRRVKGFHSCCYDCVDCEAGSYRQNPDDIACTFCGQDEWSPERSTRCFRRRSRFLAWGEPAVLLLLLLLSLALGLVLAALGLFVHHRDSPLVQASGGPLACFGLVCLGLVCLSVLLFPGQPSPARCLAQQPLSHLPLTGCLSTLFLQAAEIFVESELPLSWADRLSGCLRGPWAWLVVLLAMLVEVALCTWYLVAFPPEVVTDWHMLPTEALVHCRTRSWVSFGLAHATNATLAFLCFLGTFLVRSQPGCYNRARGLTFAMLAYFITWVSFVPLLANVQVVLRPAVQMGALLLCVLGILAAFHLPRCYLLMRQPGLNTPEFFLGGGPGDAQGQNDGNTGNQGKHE

Row | Compound | Sweetness/potency
1 | Baiyunoside [Baiyunoside (30)] | 500
2 | Pentadin | 500
3 | C/C(=C\CC/C(C)=C/CO[C@@H]1O[C@H](CO)[C@@H](O)[C@H](O[C@@H]2O[C@@H](C)[C@H](O)[C@@H](O)[C@H]2O)[C@H]1O[C@@H]1O[C@@H](C)[C@H](O)[C@@H](O)[C@H]1O)CC/C=C(\C)CO[C@@H]1O[C@H](CO)[C@@H](O)[C@H](O[C@@H]2O[C@@H](C)[C@H](O)[C@@H](O)[C@H]2O)[C@H]1O[C@@H]1O[C@@H](C)[C@H](O)[C@@H](O)[C@H]1O [Mukurozioside IIb (13), Mukurozioside IIb] | ca. 1
4 | C=C1C[C@@]23CC[C@H]4[C@@](C)(CCC[C@@]4(C)C(=O)O)[C@@H]2CC[C@]1(O[C@@H]1O[C@H](CO)[C@@H](O)[C@H](O)[C@H]1O[C@@H]1O[C@H](CO)[C@@H](O)[C@H](O)[C@H]1O)C3 [Steviolbioside (22), Steviolbioside] | 90
5 | C[C@@H]1O[C@@H](O[C@H]2O[C@@H]([C@@H](C)C3CC[C@@H]4[C@H]5CC(=O)[C@@H]6C[C@H](O[C@@H]7O[C@H](CO)[C@@H](O)[C@H](O)[C@H]7O[C@@H]7O[C@@H](C)[C@H](O)[C@@H](O)[C@H]7O)CC[C@]6(C)[C@@H]5CC[C@]34C)CC[C@@H]2C)[C@H](O)[C@H](O)[C@H]1O (stereo partly drawn) [Osladin (64), Osladin] | 500
6 | COc1c(O)cc2c(c1O)C(=O)[C@H](OC(C)=O)[C@@H](c1ccc(O)cc1)O2 [(2R,3R)-2,3-Dihydro-5,7,4′-trihydroxy-6-methoxy-3-O-acetylflavonol] | 20
7 | Albiziasaponin B [Albiziasaponin B (51)] | 600
8 | CC1(C(=O)O)C=C2C3CCC4C5(CO)CCC(OC6OC(C(=O)O)C(O)C(O)C6OC6OC(C(=O)O)C(O)C(O)C6O)C(C)(C)C5CCC4(C)C3(C)CCC2(C)CC1 (stereo not drawn) [Periandrin III (59), Periandrin III] | 92
9 | Oc1cc2c(cc1O)[C@@H]1c3ccc(O)c(O)c3OC[C@]1(O)C2 [Hematoxylin (99), Hematoxylin] | 120
10 | CC1=CC[C@@H]([C@@H](C)[C@H]2CC[C@@]3(C)[C@@H]4CC[C@H]5[C@](C)(C(=O)O)[C@@H](O[C@@H]6O[C@H](CO)[C@@H](O)[C@H](O)[C@H]6O[C@@H]6O[C@H](C(=O)O)[C@@H](O)[C@H](O)[C@H]6O)CC[C@@]56C[C@@]46CC[C@]23C)OC1=O [Abrusoside D (45), Abrusoside D] | 75
11 | CC1(C)[C@@H](O[C@@H]2O[C@H](C(=O)O)[C@@H](O)[C@H](O)[C@H]2O[C@@H]2O[C@H](C(=O)O)[C@@H](O)[C@H](O)[C@H]2O)CC[C@]2(C=O)[C@H]3CC[C@@H]4C5=C[C@@](C)(C(=O)O)CC[C@]5(C)CC[C@@]4(C)[C@]3(C)CC[C@@H]12 [Periandrin I (57), Periandrin I] | 90
12 | Periandrin II [Periandrin II (58)] | 95
13 | COc1ccc(C2Oc3cc(O)cc(O)c3C(=O)C2OC(C)=O)cc1O (stereo not drawn) [Dihydroquercetin 3-O-acetate 4′-methyl ether] | 400
14 | CC1=CC[C@@H]([C@@H](C)[C@H]2CC[C@@]3(C)[C@@H]4CC[C@H]5[C@](C)(C(=O)O)[C@@H](O[C@@H]6O[C@H](CO)[C@@H](O)[C@H](O)[C@H]6O[C@@H]6O[C@H](CO)[C@@H](O)[C@H](O)[C@H]6O)CC[C@@]56C[C@@]46CC[C@]23C)OC1=O [Abrusoside C (44), Abrusoside C] | 50

Second part, the compound after the results:

Row | Sweetness/potency | Compound
15 | 100 | C=C(C)C1CCC2(C)C(CC(OC3OCC(O)C(O)C3O)C3C(C(C)(O)C/C=C/C(C)(C)O)CCC32C)C1(C)CCC(=O)O (stereo not drawn) [Pterocaryoside B (63), Pterocaryoside B]
16 | 100 | COC(=O)[C@H]1O[C@@H](O[C@H]2[C@H](O[C@H]3CC[C@]45C[C@]46CC[C@]4(C)[C@@H]([C@H](C)[C@@H]7CC=C(C)C(=O)O7)CC[C@@]4(C)[C@@H]6CC[C@H]5[C@]3(C)C(=O)O)O[C@H](CO)[C@@H](O)[C@@H]2O)[C@H](O)[C@@H](O)[C@@H]1O [Abrusoside B (43), Abrusoside B]
17 | 85 | Periandrin IV [Periandrin IV (60)]
18 | 1,000 | COc1ccc(CCC(=O)c2c(O)cc(O[C@@H]3O[C@H](CO)[C@@H](O)[C@H](O)[C@H]3O[C@@H]3O[C@@H](C)[C@H](O)[C@@H](O)[C@H]3O)cc2O)cc1O [Neohesperidin dihydrochalcone (82), Neohesperidin dihydrochalcone]
19 | 150 | CC1(C)[C@@H](O[C@H]2O[C@H](C(=O)O)[C@@H](O)[C@H](O)[C@H]2O[C@@H]2OC[C@H](O)[C@H](O)[C@H]2O)CC[C@]2(C)[C@H]3C(=O)C=C4[C@@H]5C[C@@](C)(C(=O)O)CC[C@]5(C)CC[C@@]4(C)[C@]3(C)CC[C@@H]12 [Araboglycyrrhizin (56), Araboglycyrrhizin]
20 | 1,500 | CC(C)=CCC[C@](C)(O)[C@@H]1CCC(C)=CC1=O [(+)-Hernandulcin (11), (+)-Hernandulcin]
21 | 13 | C/C=C/c1ccc(OC)cc1 [trans-Anethole(78), trans-Anethole]
22 | 51 | Carnosifloside V [Carnosifloside V (35)]
23 | 1000 | CC[C@@H](C)C(=O)O[C@@H](C)[C@]1(O)CC[C@]2(O)[C@@H]3CC[C@H]4C[C@@H](O[C@@H]5C[C@H](O)[C@H](O[C@H]6C[C@H](OC)[C@H](O[C@H]7C[C@@H](OC)[C@H](O[C@H]8C[C@@H](OC)[C@H](O[C@@H]9O[C@H](C)[C@@H](O[C@@H]%10O[C@H](CO)[C@@H](O)[C@H](O)[C@H]%10O)[C@H](OC)[C@H]9O)[C@@H](C)O8)[C@@H](C)O7)[C@@H](C)O6)[C@@H](C)O5)CC[C@]4(C)[C@H]3C[C@@H](OC(C)=O)[C@]12C [Telosmoside A15 (74), Telosmoside A15]
24 | 550 | Curculin
25 | 400 | COc1ccc([C@H]2Cc3cccc(O)c3C(=O)O2)cc1O [Phyllodulcin (3), Phyllodulcin]
26 | 3,000 | Monellin
27 | 50 | Pterocaryoside A [Pterocaryoside A (62)]
28 | 77 | C/C(=C\CC[C@@H](C)[C@H]1CC[C@@]2(C)[C@@H]3CC=C4[C@@H](CC[C@H](O[C@@H]5O[C@H](CO)[C@@H](O)[C@H](O)[C@H]5O)C4(C)C)[C@]3(C)[C@H](O)C[C@]12C)CO[C@@H]1O[C@H](CO[C@@H]2O[C@H](CO)[C@@H](O)[C@H](O)[C@H]2O)[C@@H](O)[C@H](O)[C@H]1O [Carnosifloside VI (36), Carnosifloside VI]
29 | 300 | C[C@@H]1O[C@@H](O[C@H]2[C@H](Oc3cc(O)c(C(=O)CCc4ccc(O)cc4)c(O)c3)O[C@H](CO)[C@@H](O)[C@@H]2O)[C@H](O)[C@H](O)[C@H]1O [Naringin dihydrochalcone (81), Naringin dihydrochalcone]
30 | 300 | CC1(C(=O)O)CCC2(C)CCC3(C)C(=CC(=O)C4C5(C)CCC(OC6OC(C(=O)O)C(O)C(O)C6OC6OCC(O)(CO)C6O)C(C)(C)C5CCC43C)C2C1 (stereo not drawn) [Apioglycyrrhizin (55), Apioglycyrrhizin]
31 | 200 | Cyclocarioside A [Cyclocarioside A (47)]
32 | 30 | Dulcoside A [Dulcoside A (15)]
33 | 55 | C/C(=C\CO)CCC1=C(C=O)CC(OC2OCC(O)C(O)C2O)C2C(C)(CO)CCCC12C (stereo not drawn) [Gaudichaudioside A (32), Gaudichaudioside A]
